Data from paper PMC7504435, “Combined Protein- and Ligand-Observed NMR Workflow to Screen Fragment Cocktails against Multiple Proteins: A Case Study Using Bromodomains” (Molecules, 2020).
Values joined by “and” are separate entries in the source; they are usually repeats but may differ in a detail not shown here. Equal values may be shown once.

What was measured:
Assay type in all cases: binding
[1] = target: T1, PfGCN5 bromodomain (Plasmodium falciparum, UniProt Q8IB67); experiment: Competition 1H CPMG NMR with PfGCN5
T1 sequence (Q8IB67 entry or part of it): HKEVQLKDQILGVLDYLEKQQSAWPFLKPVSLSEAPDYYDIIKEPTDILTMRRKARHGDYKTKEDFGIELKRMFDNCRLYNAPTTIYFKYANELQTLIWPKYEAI
Description: The competition ^1H CPMG NMR and PrOF NMR assays were employed to further probe the binding mode of 9 to PfGCN5. […] At high concentrations, at or above the protein concentration, the competition maxed out at ~ 50% (Figure 2, Figure S10, Table S5). Conversely, TP-238 was able to compete 9 off from BPTF at low concentrations.
(§1) ^1H CPMG NMR. ^1H CPMG NMR screen data were acquired on Bruker Avance III HD 500 with the 5 mm Prodigy TCI cryoprobe inverse cryoprobe (^1H 2500:1 S/N). Competition ^1H CPMG NMR data were acquired on Bruker 700 MHz Avance with a CryoProbe 5 mm TXI (^1H S:N with H2O suppression (2mM sucrose) - 900:1) and excitation sculpting water suppression. Proteins were present at 10 µM in 50 mM phosphate, 100 mM NaCl, pH 7.4 in 100% D2O. In separate NMR tubes, a ^1H CPMG NMR pulse was applied to a 1) mixture of ligands (individual ligands present at 100 µM for the screen and 50 µM for competition experiments) and 2) ligands + protein. For competition experiments, the ligands were used individually, and the competitor ligands were spiked into tube 2. ^1H CPMG NMR parameters for the screen: NS = 128, acquisition time = 2 s, τ = 2.5 ms, and L = 120. For the competition experiments, τ was increased to 4.0 ms.

[2] = target: T2, BPTF bromodomain (Homo sapiens, UniProt Q12830); experiment: 1H CPMG NMR deconvolution of hit mixtures, BPTF; parameters: deconvolution of the hit mixtures using the non-fluorine-labeled bromodomains; made in house; host or cells: E. coli BL21(DE3); details: 10 µM protein, 100 µM ligand
Method: (§2) The second step is a ^1H CPMG NMR deconvolution of the hit mixtures using the non-fluorine-labeled bromodomains. ^1H CPMG NMR employs a T2 filter to take advantage of the difference in transverse relaxation time between protein and small molecules to filter out the bound-state ligand(s). Unlike the PrOF NMR assay, a single protein is assayed in each experiment. A binding event is characterized by a decrease in ligand resonance intensity from the ligand alone spectrum to the ligand + protein spectrum. A hit is defined as a decrease in resonance intensity ≥ 20%. The ^1H CPMG NMR assay can be tuned by changing the protein or ligand concentration, filter length (Figure 1), or hit criteria depending on how stringent the desired hit rate is. The number of ^1H CPMG NMR deconvolution experiments is directly informed from the first step. If a mixture from the first step was only a hit for one protein, a single ^1H CPMG NMR deconvolution experiment is needed. If a mixture from the first step was a hit for both proteins, two separate ^1H CPMG NMR deconvolutions experiments are needed to determine the fragments that bind to each protein.
as §1, with “For competition experiments, the ligands were used individually, and the competitor ligands were spiked into tube 2. ^1H CPMG NMR parameters for the screen: NS = 128, acquisition time = 2 s, τ = 2.5 ms, and L = 120.” left out

[3] = target: T1, PfGCN5 bromodomain; experiment: 1H CPMG NMR deconvolution of hit mixtures, PfGCN5; details: 10 µM protein, 100 µM ligand
Method: as §2
as §1, with “For competition experiments, the ligands were used individually, and the competitor ligands were spiked into tube 2. ^1H CPMG NMR parameters for the screen: NS = 128, acquisition time = 2 s, τ = 2.5 ms, and L = 120.” left out

[4] = target: T1, PfGCN5 bromodomain; experiment: biochemical
Method: The screening workflow consists of two dependent steps: 1) a PrOF NMR screen of the 5FW-labeled proteins and a cocktail of 4–5 fragments in a single NMR tube; 2) a ^1H CPMG NMR binding assay to deconvolute the hit mixtures for each protein (Figure 1). In the first step, a dual-protein PrOF NMR spectrum was obtained in which 5FW-PfGCN5, 5FW-BPTF (~ 50 µM each) and mixtures of fragments (400 µM individual fragment) were present in the same NMR tube. […] Chemical shift perturbations indicating a ligand binding event were based on a prior cutoff of Δδ ≥ 0.030 ppm as the definition for a hit mixture. This cutoff was based on a statistical analysis of chemical shift perturbations from a prior BRD4 D1 fragment screen and are described further in the experimental section and in Table S2.
PrOF NMR. PrOF NMR spectra were obtained on a Bruker Avance III HD 500 with the 5 mm Prodigy TCI inverse cryoprobe (^19F S:N 2000:1). […] The DMSO concentration for all experiments was kept constant at 1%. […] For the PrOF NMR screen, 5FW-BPTF and 5FW-PfGCN5 (35–40 µM in 50 mM phosphate, 100 mM NaCl, pH 7.4) were tested with mixtures of 4–5 fragments, where each individual fragment was 400 µM. […] A 10 Hz line broadening was applied. Titrations were fit to Equation (2), where p is the protein concentration and L is the ligand concentration. (2) Δδ=Δδmax × (Kd+P+L ) − (((Kd + P + L )^2) − 4PL)/2P
A PrOF NMR binding event is characterized as a change in chemical shift (Δδ) from the protein-only spectrum to the protein + fragment mixture spectrum. We used a prior cutoff of Δδ ≥ 0.030 ppm as the definition of a hit mixture, based on a statistical analysis of chemical shift perturbations from a prior BRD4 D1 fragment screen.

[5] = target: T2, BPTF bromodomain; experiment: Competition 1H CPMG NMR with BPTF; parameters: deconvolution of the hit mixtures using the non-fluorine-labeled bromodomains; made in house; host or cells: E. coli BL21(DE3)
Method: The competition ^1H CPMG NMR and PrOF NMR assays were employed to further probe the binding mode of 9 to PfGCN5.
as §1, with “For competition experiments, the ligands were used individually, and the competitor ligands were spiked into tube 2. ^1H CPMG NMR parameters for the screen: NS = 128, acquisition time = 2 s, τ = 2.5 ms, and L = 120.” left out

[6] = for 9 from competition experiments (footnote a)

`Nc1ccc2c(c1)N(C(=O)C1CC1)CCC2` [Fragment 9] was tested, and the “% drop PfGCN5” value ([1]; resonance of 9 at 2.6884 ppm, GSK series) was 72%, the “% drop PfGCN5” value ([1]; resonance of 9 at 2.6884 ppm, L-Moses series) was 83% and the “% drop PfGCN5” value ([1]; resonance of 9 at 6.98 ppm, GSK series) was 71%. For the same molecule, the “% drop PfGCN5” value ([1]; resonance of 9 at 6.98 ppm, L-Moses series) was 75%, the “BPTF CPMG % decrease” value [2] was 100% and the “1H CPMG NMR % Drop in Resonance Intensity BPTF” value [2, 6] was “++++ ^a (++++ = 80–99.9%)”. For the same molecule, the “PfGCN5 CPMG % decrease” value [3] was 100%, the “1H CPMG NMR % Drop in Resonance Intensity PfGCN5” value [3, 6] was “++++ ^a (++++ = 80–99.9%)” and the “ligand efficiency (LE)” value ([4]; PfGCN5, from Kd = 16 µM) was 0.43. For the same molecule, the Kd ([4]; PfGCN5 Kd, PrOF NMR titration, for 9 average of W1454 and W1379, NS = non-saturating) was 17 µM and 16 µM, the “Initial Mixture PfGCN5 PrOF NMR Δδ” value ([4]; hit mixture containing the fragment, 400 µM each fragment) was “++++ (++++ = Δδ > 0.2)” and the “selectivity, binds PfGCN5 over BPTF” value ([4]; ratio of Kd values) was 9 fold. For the same molecule, the “% drop BPTF” value ([5]; resonance of 9 at 2.6884 ppm) was 46% and the “% drop BPTF” value ([5]; resonance of 9 at 6.98 ppm) was 68%.
